From US20050090398A1, “Novel tetrazole derivative useful as herbicides” (priority 2002, published 2005)

Key:
[1] = tested on: Polygonum; assay: Test of post-emergence foliage treatment against field weeds; assay type: in vivo; settings: post-emergence foliage treatment at 2-leaf stage, 2.0 kg/ha effective component, examined 3 weeks after treatment
Procedure: (§1) Preparation of formulation of the active compound • Carrier: Acetone 5 parts by weight • Emulsifier: Benzyloxy polyglycol ether 1 part by weight
(§2) A formulation of an active substance is obtained as an emulsifiable concentrate by mixing 1 part by weight of the active compound with the above-mentioned amount of the carrier and emulsifier. A prescribed amount of the formulation is diluted with water.
(§3) In a green house, seeds of Echinochloa crusgalli, Setaria viridis, Amaranthus retro-flexus and Polygonum were sown in a 120 cm^2 pot filled with field soil and covered with soil. 10 days after the sowing and soil covering (weeds were 2-leaf stage in average) a diluted solution of the prescribed chemical amount prepared in the same manner as in the above-mentioned Test Example 1 was spread uniformly on the foliage of the test plants in each test pot. The herbicidal effect was examined 3 weeks after the treatment.

[2] = tested on: Amaranthus retroflexus; assay: as above; assay type: in vivo; settings: post-emergence foliage treatment at 2-leaf stage, 2.0 kg/ha effective component, examined 3 weeks after treatment
Procedure: as §1, §2, §3

[3] = tested on: Setaria viridis; assay: as above; assay type: in vivo; settings: post-emergence foliage treatment at 2-leaf stage, 2.0 kg/ha effective component, examined 3 weeks after treatment
Procedure: as §1, §2, §3

[4] = tested on: Echinochloa crusgalli; assay: as above; assay type: in vivo; settings: post-emergence foliage treatment at 2-leaf stage, 2.0 kg/ha effective component, examined 3 weeks after treatment
Procedure: as §1, §2, §3

[5] = tested on: transplanted paddy rice; assay: Paddy field test: safety to transplanted paddy rice; assay type: in vivo, paddy rice (variety: Nihonbare); settings: 0.25 kg/ha active component, applied to water surface 5 days after rice transplantation, examined after 3 weeks
Procedure: as §1, §2
(§4) In a green house 3 seedlings of paddy rice (variety: Nihonbare) of 2.5 leaf stage (15 cm tall) were transplanted in a 500 cm^2 pot filled with paddy field soil. Then seeds or tubers of Echinochloa crusgalli, Cyperus difformis L., Scirpus juncoides Roxburgh, Monochoria vaginalis Presl, broad-leaved weeds (Lindernia Procumbens Philcox, Rotala indica Koehne, Elatine triandra Schk, Ammannia multiflora Roxb., Dopatrium junceum Hammilt etc.), Cyperus serotinus Rottboel and Sagittaria pygmaea Miq were inoculated and water was poured to a depth of about 2-3 cm. 5 days after the rice transplantation a prescribed, diluted solution of each formulation of active compound prepared according to the aforementioned preparation method was applied to the surface of water. After the treatment the water depth of 3 cm was maintained and the herbicidal effect was examined after 3 weeks from the treatment. The herbicidal effect was rated 100% in the case of complete death and as 0% in the case of no herbicidal effect.

[6] = tested on: paddy field weeds; assay: Test for herbicidal effect against paddy field weeds; assay type: in vivo; settings: 0.25 kg/ha active component, applied to water surface 5 days after rice transplantation, examined after 3 weeks
Procedure: as §1, §2, §4

Row | Compound | melting point | herbicidal activity against Polygonum [1] | herbicidal activity against Amaranthus retroflexus [2] | herbicidal activity against Setaria viridis [3] | herbicidal activity against Echinochloa crusgalli [4] | safety to the transplanted paddy rice [5] | herbicidal effect against paddy field weeds [6]
1 | O=C1CCCC(Cl)=C1C(=O)c1ccc(Cl)c(OCCn2cnnn2)c1Cl | 122 to 124 °C | – | – | – | – | – | –
2 | O=C1CCCC(Sc2ccccc2)=C1C(=O)c1ccc(Cl)c(OCCn2cnnn2)c1Cl | 64 to 70 °C | – | – | – | – | – | –
3 | O=C1CCCC(=O)C1C(=O)c1ccc(Cl)c(OCCn2cnnn2)c1Cl [compound 212] | – | 90% | 90% | 90% | 90% | – | –
4 | CC1(C)CC(=O)C(C(=O)c2ccc(Cl)c(OCCn3cnnn3)c2Cl)C(=O)C1 [compound 213] | – | 90% | 90% | 90% | 90% | – | –
5 | CC1CC(=O)C(C(=O)c2ccc(Cl)c(OCCn3cnnn3)c2Cl)C(=O)C1 (centres unmarked) [compound 215] | – | 90% | 90% | 90% | 90% | – | –
6 | O=C(c1ccc(Cl)c(OCCn2cnnn2)c1Cl)C1C(=O)C2CCC(C2)C1=O (centres unmarked) [compound 217] | – | – | – | – | – | safety to the transplanted paddy rice | sufficient herbicidal effect
7 | O=C1CCCC(Sc2ccccc2)=C1C(=O)c1ccc(Cl)c(OCCn2cnnn2)c1Cl [compound 219] | – | – | – | – | – | safety to the transplanted paddy rice | sufficient herbicidal effect
8 | O=C1CCCC(Cl)=C1C(=O)c1ccc(Cl)c(OCCn2cnnn2)c1Cl [compound 258] | – | 90% | 90% | 90% | 90% | – | –
9 | CCn1ncc(C(=O)c2ccc(Cl)c(OCCn3cnnn3)c2Cl)c1O [compound 272] | – | 90% | 90% | 90% | 90% | – | –
10 | Cc1nnnn1CCOc1c(Cl)ccc(C(=O)C2C(=O)CCCC2=O)c1Cl [compound 275] | – | 90% | 90% | 90% | 90% | – | –
11 | CS(=O)(=O)c1ccc(C(=O)C2C(=O)CCCC2=O)c(Cl)c1Cn1cnnn1 [compound 495] | – | 90% | 90% | 90% | 90% | – | –
12 | Cc1nnnn1Cc1c(S(C)(=O)=O)ccc(C(=O)C2C(=O)CCCC2=O)c1Cl [compound 558] | – | – | – | – | – | safety to the transplanted paddy rice | sufficient herbicidal effect
13 | CSc1nnnn1Cc1c(S(C)(=O)=O)ccc(C(=O)C2C(=O)CCCC2=O)c1Cl [compound 650] | – | 90% | 90% | 90% | 90% | – | –
14 | CS(=O)(=O)c1ccc(C(=O)C2C(=O)CCCC2=O)c(Cl)c1OCCn1cnnn1 [compound 715] | – | 90% | 90% | 90% | 90% | – | –
15 | O=C1CCCC(=O)C1C(=O)c1ccc(Br)c(OCCn2cnnn2)c1Br [compound 1234] | – | 90% | 90% | 90% | 90% | – | –
16 | O=C(c1ccc(Br)c(OCCn2cnnn2)c1Br)C1C(=O)C2CCC(C2)C1=O (centres unmarked) [compound 1239] | – | 90% | 90% | 90% | 90% | – | –
17 | CCn1ncc(C(=O)c2ccc(Br)c(OCCn3cnnn3)c2C)c1O [compound 1593] | – | 90% | 90% | 90% | 90% | – | –

Row | Compound | melting point | herbicidal activity against Polygonum [1] | herbicidal activity against Amaranthus retroflexus [2] | herbicidal activity against Setaria viridis [3] | herbicidal activity against Echinochloa crusgalli [4] | safety to the transplanted paddy rice [5] | herbicidal effect against paddy field weeds [6]
18 | CCn1ncc(C(=O)c2ccc([N+](=O)[O-])c(OCCn3cnnn3)c2C)c1O [compound 1693] | – | 90% | 90% | 90% | 90% | – | –
19 | O=C1CCCC(=O)C1C(=O)c1ccc(Cl)c(OCCn2ncnn2)c1Cl [compound 2017] | – | 90% | 90% | 90% | 90% | – | –
20 | O=C(c1ccc(Cl)c(OCCn2ncnn2)c1Cl)C1C(=O)C2CCC(C2)C1=O (centres unmarked) [compound 2022] | – | 90% | 90% | 90% | 90% | – | –
21 | O=C1CCCC(Sc2ccccc2)=C1C(=O)c1ccc(Cl)c(OCCn2ncnn2)c1Cl [compound 2024] | – | – | – | – | – | safety to the transplanted paddy rice | sufficient herbicidal effect
22 | O=C1CCCC(Cl)=C1C(=O)c1ccc(Cl)c(OCCn2ncnn2)c1Cl [compound 2063] | – | 90% | 90% | 90% | 90% | – | –
23 | CCn1ncc(C(=O)c2ccc(Cl)c(OCCn3ncnn3)c2Cl)c1O [compound 2077] | – | 90% | 90% | 90% | 90% | – | –
24 | Cc1nnn(CCOc2c(Cl)ccc(C(=O)C3C(=O)CCCC3=O)c2Cl)n1 [compound 2080] | – | 90% | 90% | 90% | 90% | – | –
25 | Cc1nnn(CCOc2c(Cl)ccc(C(=O)C3C(=O)CC(C)(C)CC3=O)c2Cl)n1 [compound 2081] | – | 90% | 90% | 90% | 90% | – | –
26 | CS(=O)(=O)c1ccc(C(=O)C2C(=O)CCCC2=O)c(Cl)c1Cn1ncnn1 [compound 2301] | – | 90% | 90% | 90% | 90% | – | –
27 | Cc1ccc(SC2=C(C(=O)c3ccc(S(C)(=O)=O)c(Cn4ncnn4)c3Cl)C(=O)CCC2)cc1 [compound 2329] | – | – | – | – | – | safety to the transplanted paddy rice | sufficient herbicidal effect
28 | Cc1cccc(C)c1SC1=C(C(=O)c2ccc(S(C)(=O)=O)c(Cn3ncnn3)c2Cl)C(=O)CCC1 [compound 2335] | – | – | – | – | – | safety to the transplanted paddy rice | sufficient herbicidal effect
29 | CS(=O)(=O)c1ccc(C(=O)C2=C(Cl)CCCC2=O)c(Cl)c1Cn1ncnn1 [compound 2347] | – | 90% | 90% | 90% | 90% | – | –
30 | Cc1nnn(Cc2c(S(C)(=O)=O)ccc(C(=O)C3C(=O)CCCC3=O)c2Cl)n1 [compound 2364] | – | 90% | 90% | 90% | 90% | safety to the transplanted paddy rice | sufficient herbicidal effect
31 | CS(=O)(=O)c1ccc(C(=O)C2C(=O)CCCC2=O)c(Cl)c1OCCn1ncnn1 [compound 2521] | – | 90% | 90% | 90% | 90% | – | –
32 | O=C1CCCC(=O)C1C(=O)c1ccc(Br)c(OCCn2ncnn2)c1Br [compound 3038] | – | 90% | 90% | 90% | 90% | – | –
33 | O=C(c1ccc(Br)c(OCCn2ncnn2)c1Br)C1C(=O)C2CCC(C2)C1=O (centres unmarked) [compound 3043] | – | 90% | 90% | 90% | 90% | – | –
